The values below are quoted from earlier work in patent US9029427B2, “Controlled release solid preparation” (Asahi Kasei Chemicals Corporation, priority 2005, dated 2015).

For the data set the following is noted: water.

For the compound `CCOc1ccccc1C(N)=O` [Ethenzamide], the “amount of solvent required for dissolving 1 g of solute” value was at least 10000 cm^3.
On to `O=C([O-])c1ccccc1O.[Na+]` [sodium salicylate], for which the “amount of solvent required for dissolving 1 g of solute” value is on record as “less than 1 cm^3”.
